One assay deals with hSERT (Homo sapiens (Human), UniProt P31645). The assay is described as follows: SERT radioligand binding assay ([125I]RTI-55, HEK-293 membranes). To be noted: recombinant HEK-293 membranes, [125I]RTI-55; read-out: Binding Affinity (IC50, nM) SERT.
A further assay concerns the target hDAT (Homo sapiens (Human), UniProt Q01959). The assay is described as follows: DAT radioligand binding assay ([125I]RTI-55, HEK-293 membranes). To be noted: recombinant HEK-293 membranes, [125I]RTI-55; read-out: Binding Affinity (IC50, nM) DAT.
In a further assay the target is hNET (Homo sapiens (Human), UniProt P23975). Nature of the assay: NET radioligand binding assay ([3H]nisoxetine, HEK-293 membranes). To be noted: recombinant HEK-293 membranes, [3H]nisoxetine; read-out: Binding Affinity (IC50, nM) NET.
Sequence of hNET (P23975 whole entry): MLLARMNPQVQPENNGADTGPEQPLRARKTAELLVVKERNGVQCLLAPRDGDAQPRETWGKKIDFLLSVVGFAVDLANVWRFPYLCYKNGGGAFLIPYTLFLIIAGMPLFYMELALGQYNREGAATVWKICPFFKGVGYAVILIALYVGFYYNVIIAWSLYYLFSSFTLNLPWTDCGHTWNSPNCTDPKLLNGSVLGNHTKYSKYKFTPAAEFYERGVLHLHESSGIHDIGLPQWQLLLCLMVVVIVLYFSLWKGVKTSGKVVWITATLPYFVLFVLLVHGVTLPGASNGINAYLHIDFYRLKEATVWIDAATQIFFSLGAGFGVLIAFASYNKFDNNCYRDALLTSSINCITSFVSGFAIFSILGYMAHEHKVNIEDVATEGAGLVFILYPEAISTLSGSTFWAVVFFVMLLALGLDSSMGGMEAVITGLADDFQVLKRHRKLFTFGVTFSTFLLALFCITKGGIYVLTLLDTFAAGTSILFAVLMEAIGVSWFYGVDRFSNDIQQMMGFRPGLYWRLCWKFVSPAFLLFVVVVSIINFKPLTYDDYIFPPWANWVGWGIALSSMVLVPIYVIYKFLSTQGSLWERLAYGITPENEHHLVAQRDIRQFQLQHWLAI
In the next assay the test system is SERT. The assay is described as follows: Ex vivo transporter occupancy assay, SERT ([3H]citalopram, brain tissue). The format is in vivo. To be noted: dosed orally, time until sacrifice 3 h. The text has this:
(§1) The general procedure for brain tissue collection and transporter occupancy assessment is briefly described as follows. Mice were sacrificed by asphyxiation in CO2, rats by decapitation and dogs by IV injection of euthanasia solution. For mice and rats, after the brains were removed from the skull, the forebrain tissue (removal of the brainstem and cerebellum) was used for SERT, NET, and DAT occupancy assessment. In dogs, the striatum was dissected for DAT occupancy and the remaining forebrain tissue (without the striatum, brainstem, and cerebellum) was used for SERT and NET occupancy assessment. The brain tissues were frozen in chilled isopentane and stored at −80° C. until homogenization.
(§2) The brain tissues were thawed and then homogenized using a polytron homogenizer (Kinematica). Sample aliquots were frozen immediately and stored at −80° C. Protein content was measured for each sample using a Coomassie protein assay kit (Pierce).
On the day of ex vivo binding for occupancy assessment, frozen sample aliquots were thawed and needle homogenized, and 100 μg of the tissue was incubated for SERT, NET, and DAT binding under assay conditions summarized in Table 1. After incubation, the reactions were terminated by the addition of ice-cold assay buffer and rapid filtration through a Brandel Cell Harvester using FPXLR-196 filters. The filters were washed twice with ice-cold incubation buffer, punched into a clear plate prior to the addition of 200 ul scintillation fluid per well. Radioligand was measured using a Wallac Microbeta liquid scintillation counter.
(§3) The specific binding was calculated by subtracting the value of the non-specific binding from that of the total binding in each sample. The percent occupancy was calculated as (1−specific binding in drug treated/specific binding in vehicle treated)×100%. […] Nonlinear regression was performed using GraphPad Prism version 3.00 (GraphPad Software, San Diego, Calif.).

A further assay has as its system DAT. Nature of the assay: Ex vivo transporter occupancy assay, DAT ([125I]RTI-55, brain tissue). The class given is in vivo. To be noted: dosed orally, time until sacrifice 3 h.
From the text: as §1, §2
(§4) On the day of ex vivo binding for occupancy assessment, frozen sample aliquots were thawed and needle homogenized, and 100 μg of the tissue was incubated for SERT, NET, and DAT binding under assay conditions summarized in Table 1. […] The filters were washed twice with ice-cold incubation buffer, punched into a clear plate prior to the addition of 200 ul scintillation fluid per well. Radioligand was measured using a Wallac Microbeta liquid scintillation counter.
as §3

For another assay, the system named is NET. The assay is described as follows: Ex vivo transporter occupancy assay, NET ([3H]nisoxetine, brain tissue). The class given is in vivo. To be noted: dosed orally, time until sacrifice 3 h.
From the text: as §1, §2, §4, §3

Sequence of hDAT (Q01959 whole entry): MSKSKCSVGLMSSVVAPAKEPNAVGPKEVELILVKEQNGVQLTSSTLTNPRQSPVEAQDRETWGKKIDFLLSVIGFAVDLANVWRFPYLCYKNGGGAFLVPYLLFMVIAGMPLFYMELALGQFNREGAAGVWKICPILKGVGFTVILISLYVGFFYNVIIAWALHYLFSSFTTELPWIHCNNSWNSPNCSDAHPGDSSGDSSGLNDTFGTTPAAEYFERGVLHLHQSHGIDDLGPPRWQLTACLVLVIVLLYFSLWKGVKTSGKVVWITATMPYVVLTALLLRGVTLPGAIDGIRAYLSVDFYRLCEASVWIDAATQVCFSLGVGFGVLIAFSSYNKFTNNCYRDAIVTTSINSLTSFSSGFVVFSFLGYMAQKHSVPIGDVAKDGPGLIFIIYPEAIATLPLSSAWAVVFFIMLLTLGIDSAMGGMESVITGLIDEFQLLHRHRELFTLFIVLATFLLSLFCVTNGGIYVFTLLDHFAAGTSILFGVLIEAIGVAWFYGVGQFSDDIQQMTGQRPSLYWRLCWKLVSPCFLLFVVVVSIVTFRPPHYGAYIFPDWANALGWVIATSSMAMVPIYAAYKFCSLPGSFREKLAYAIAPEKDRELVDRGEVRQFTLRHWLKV
Sequence of hSERT (P31645 whole entry): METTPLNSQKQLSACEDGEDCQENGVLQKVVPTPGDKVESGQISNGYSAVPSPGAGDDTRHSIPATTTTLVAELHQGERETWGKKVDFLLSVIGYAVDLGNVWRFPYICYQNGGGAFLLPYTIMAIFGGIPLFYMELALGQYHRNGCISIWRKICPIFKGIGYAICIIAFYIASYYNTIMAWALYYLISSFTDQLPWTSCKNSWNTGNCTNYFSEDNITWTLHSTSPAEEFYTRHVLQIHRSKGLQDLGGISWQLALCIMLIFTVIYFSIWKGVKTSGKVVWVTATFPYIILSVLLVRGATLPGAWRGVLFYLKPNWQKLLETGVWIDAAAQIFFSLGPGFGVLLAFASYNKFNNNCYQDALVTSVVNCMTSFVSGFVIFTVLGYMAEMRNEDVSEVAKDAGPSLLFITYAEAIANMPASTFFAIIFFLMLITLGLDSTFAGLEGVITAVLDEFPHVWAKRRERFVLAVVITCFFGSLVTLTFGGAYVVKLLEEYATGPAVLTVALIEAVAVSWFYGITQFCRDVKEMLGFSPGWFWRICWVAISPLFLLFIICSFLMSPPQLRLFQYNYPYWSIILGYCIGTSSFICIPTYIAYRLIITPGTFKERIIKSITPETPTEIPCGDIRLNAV

Regarding `FC(F)Oc1ccc(-c2ccc3c(c2)CN2CCC3(c3ccc(Cl)cc3)CC2)nn1` [Example 14, 5-(4-chlorophenyl)-8-(6-(difluoromethoxy)pyridazin-3-yl)-2,5-ethano-2,3,4,5-tetrahydro-1H-2-benzo[c]azepine], the IC50 on hSERT was 1.1 nM; on hDAT it was 57.3 nM; on hNET, 264 nM. Further, the “% Occupancy SERT” value in the assay on SERT (3 mg/kg) is reported as 79%. In the assay with DAT (3 mg/kg), the “% Occupancy DAT” value was determined as 12%. Moreover, the “% Occupancy NET” value with NET (3 mg/kg) came to 0%.
For `Clc1ccc(C23CCN(CC2)Cc2cc(-c4cnccn4)ccc23)cc1` [Example 17, 5-(4-chlorophenyl)-2,5-ethano-8-(pyrazin-2-yl)-2,3,4,5-tetrahydro-1H-benzo[c]azepine], the IC50 on hSERT was found to be 5.3 nM; on hDAT, 83.5 nM; at hNET it was 2300 nM. The “% Occupancy SERT” value in the assay with SERT (1 mg/kg) came out at 77%. Besides, the “% Occupancy DAT” value in the assay on DAT (1 mg/kg) was 0%. In the assay with NET (1 mg/kg), the “% Occupancy NET” value is recorded as 12%.
As for `FC(F)Oc1ccc(-c2ccc3c(c2)CN2CCC3(c3ccc(Cl)cc3)C2)nn1` (single isomer, unassigned) [6(−), 5-(4-chlorophenyl)-8(6-(difluoromethoxy)pyridazin-3-yl)-2,5-methano-2,3,4,5-tetrahydro-1H-benzo[c]azepine], the IC50 stood at 5.9 nM on hSERT, 87.2 nM at hDAT and 275 nM on hNET. For the same molecule, in the assay on SERT (3 mg/kg), the “% Occupancy SERT” value stood at 59%. In addition, in the assay with DAT (3 mg/kg), the “% Occupancy DAT” value is reported as 12%. Besides, the “% Occupancy NET” value in the assay with NET (3 mg/kg) is reported as 0%.
Take `FC(F)Oc1ccc(-c2ccc3c(c2)CN2CCC3(c3ccc(Cl)c(Cl)c3)CC2)nn1` [Example 39, 5-(3,4-dichlorophenyl)-8-(6-(difluoromethoxy)pyridazin-3-yl)-2,5-ethano-2,3,4,5-tetrahydro-1H-benzo[c]azepine]: the IC50 is 3.8 nM on hSERT, 26.1 nM at hDAT and 53.5 nM on hNET. In addition, the “% Occupancy SERT” value in the assay on SERT (3 mg/kg) is given as 59%. Also, the “% Occupancy NET” value in the assay with NET (3 mg/kg) is listed as 41%.
Turning to `Nc1cnc(-c2ccc3c(c2)CN2CCC3(c3ccc(Cl)c(Cl)c3)CC2)cn1` [Example 42, 5-(5-(3,4-dichlorophenyl)-2,5-ethano-2,3,4,5-tetrahydro-1H-benzo[c]azepin-8-yl)pyrazin-2-amine], the IC50 at hSERT was determined as 5.9 nM; on hDAT, 9.2 nM; on hNET, 155 nM. In the assay with SERT (3 mg/kg), the “% Occupancy SERT” value is listed as 82%. Besides, the “% Occupancy DAT” value in the assay on DAT (3 mg/kg) was determined as 54%. The “% Occupancy NET” value with NET (3 mg/kg) is on record as 39%.
With `FC(F)(F)c1ccc(Oc2ccc3c(c2)CN2CCC3(c3ccc(Cl)c(Cl)c3)CC2)nn1` [Example 45, 5-(3,4-dichlorophenyl)-2,5-ethano-8-(6-(trifluoromethyl)pyridazin-3-yloxy)-2,3,4,5-tetrahydro-1H-benzo[c]azepine], the IC50 on hSERT was found to be 4.8 nM; at hDAT it was 0.7 nM; at hNET, 35.1 nM. In addition, the “% Occupancy SERT” value in the assay on SERT (1 mg/kg) is reported as 46%. The “% Occupancy DAT” value in the assay on DAT (1 mg/kg) was determined as 17%. In the assay with NET (1 mg/kg), the “% Occupancy NET” value worked out at 0%.
Consider `FC(F)(F)c1ccc(Oc2ccc3c(c2)CN2CCC3(c3ccc(Cl)cc3)CC2)nn1` [Example 32, 5-(4-chlorophenyl)-2,5-ethano-8-(6-(trifluoromethyl)pyridazin-3-yloxy)-2,3,4,5-tetrahydro-1H-benzo[c]azepine], for which the figures for the IC50 at hSERT, on hDAT and at hNET were 4.3 nM, 36.5 nM and 124 nM, respectively. Further, the “% Occupancy SERT” value in the assay with SERT (3 mg/kg) was determined as 74%. In addition, in the assay on DAT (3 mg/kg), the “% Occupancy DAT” value was determined as 42%. Moreover, the “% Occupancy NET” value in the assay on NET (3 mg/kg) was determined as 0%.
As to `CS(=O)(=O)c1ccc(-c2ccc3c(c2)CN2CCC3(c3ccc(Cl)cc3)CC2)cc1` [Example 26, 5-(4-chlorophenyl)-2,5-ethano-8-(4-(methylsulfonyl)phenyl)-2,3,4,5-tetrahydro-1H-benzo[c]azepine], the IC50 at hSERT amounted to 7.2 nM; on hDAT, 63 nM; at hNET, 432 nM. Further, in the assay with SERT (1 mg/kg), the “% Occupancy SERT” value was 14%. In addition, the “% Occupancy DAT” value with DAT (1 mg/kg) was 3%. In addition, in the assay on NET (1 mg/kg), the “% Occupancy NET” value worked out at 0%.
`Oc1ccc(-c2ccc3c(c2)CN2CCC3(c3ccc(Cl)cc3)C2)nn1` (single isomer, unassigned) [7(−), 6-(5-(4-chlorophenyl)-2,5-methano-2,3,4,5-tetrahydro-1H-benzo[c]azepin-8-yl)pyridazin-3-ol]: the IC50 was found to be 6.4 nM on hSERT, 16.6 nM on hDAT and 103 nM at hNET. For the same molecule, the “% Occupancy SERT” value in the assay with SERT (1 mg/kg) is on record as 70%. In addition, the “% Occupancy DAT” value in the assay with DAT (1 mg/kg) came to 1%. Further, the “% Occupancy NET” value in the assay on NET (1 mg/kg) worked out at 46%.
Turning to `Fc1ccc(C23CCN(CC2)Cc2cc(Oc4ccc(C(F)(F)F)nn4)ccc23)cc1Cl` [Example 47, 5-(3-chloro-4-fluorophenyl)-2,5-ethano-8-(6-(trifluoromethyl)pyridazin-3-yloxy)-2,3,4,5-tetrahydro-1H-benzo[c]azepine], the IC50 on hSERT came out at 6.4 nM; on hDAT, 9 nM; on hNET it was 112 nM. In the assay on SERT (1 mg/kg), the “% Occupancy SERT” value was 34%. Further, the “% Occupancy DAT” value in the assay with DAT (1 mg/kg) amounted to 17%. Also, the “% Occupancy NET” value with NET (1 mg/kg) turned out to be 0%.
On to `Nc1cnc(-c2ccc3c(c2)CN2CCC3(c3ccc(Cl)cc3)CC2)cn1` [Example 18, 5-(5-(4-chlorophenyl)-2,5-ethano-2,3,4,5-tetrahydro-1H-benzo[c]azepin-8-yl)pyrazin-2-amine], for which the results for the IC50 at hSERT, at hDAT and on hNET were 3.5 nM, 47.6 nM and 925 nM, respectively. Also, the “% Occupancy SERT” value in the assay on SERT (3 mg/kg) was determined as 89%. Moreover, the “% Occupancy DAT” value with DAT (3 mg/kg) turned out to be 15%. Besides, in the assay with NET (3 mg/kg), the “% Occupancy NET” value came to 6%.
As for `O=C1NC2C=CC(c3ccc4c(c3)CN3CCC4(c4ccc(Cl)cc4)CC3)=CC2O1` (centres unmarked) [Example 22, 6-(5-(4-chlorophenyl)-2,5-ethano-2,3,4,5-tetrahydro-1H-benzo[c]azepin-8-yl)-3,3a-dihydrobenzo[d]oxazol-2(7aH)-one], the IC50 on hSERT amounted to 3.4 nM; at hDAT it was 58.6 nM; at hNET, 806 nM. Also, in the assay on SERT (3 mg/kg), the “% Occupancy SERT” value stood at 60%. In the assay with DAT (3 mg/kg), the “% Occupancy DAT” value is listed as 5%. For the same molecule, the “% Occupancy NET” value in the assay on NET (3 mg/kg) is 0%.
`Fc1cc(C23CCN(CC2)Cc2cc(Oc4ccc(C(F)(F)F)nn4)ccc23)ccc1Cl` [Example 48, 5-(4-chloro-3-fluorophenyl)-2,5-ethano-8-(6-(trifluoromethyl)pyridazin-3-yloxy)-2,3,4,5-tetrahydro-1H-benzo[c]azepine]: the concentration for half-maximal inhibition (IC50) was 7.2 nM at hSERT, 10.1 nM on hDAT and 134 nM on hNET. Besides, the “% Occupancy SERT” value in the assay with SERT (1 mg/kg) was determined as 21%. The “% Occupancy DAT” value with DAT (1 mg/kg) worked out at 12%. The “% Occupancy NET” value in the assay with NET (1 mg/kg) worked out at 0%.

Broadly, the IC50 is the concentration that gives 50% inhibition.

The values above are taken from patent publication US9045468B2, “2,5-methano- and 2,5-ethano-tetrahydrobenzazepine derivatives and use thereof to block reuptake of norepinephrine, dopamine, and serotonin” (Albany Molecular Research, Inc., priority 2010, dated 2015).
